Some results are limits rather than exact numbers.

Usually IC50 stands for the concentration that gives 50% inhibition. For orientation: EC50 means the concentration needed to bring the measured effect to its halfway point.

The target in test [1] is p300 HAT domain (residues 1287-1666) (Homo sapiens (Human), UniProt Q09472). Description: p300 HAT SPA assay (scintillation proximity assay, acetylation of biotinylated H3(1-21) peptide). The conditions noted are these: p300 HAT domain; average of at least 2 replicate titrations; read-out: P300 HAT SPA IC50. In kind it is biochemical. In outline:
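Purified p300 HAT domain reaction transferred to streptavidin plates to capture biotinylated H3(1-21) peptide, incubated 1.5 hr at RT, and read by scintillation proximity. IC50 values derived from concentration-response data.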
A general note: In a scintillation proximity assay essentially only radioactivity close to the scintillant gives light.

Test [2] concerns the target full length p300 (Homo sapiens (Human), UniProt Q09472). Description: full length p300 SPA assay. The settings on record: average of at least 2 replicate titrations, read-out: FL P300 IC50. It is filed as biochemical. Here is the method:
Reactions were initiated with 12.5 μL 2 μM biotinylated H3(1-21) peptide (New England Peptide) and run for 1 hr at RT, then quenched with 20 μL stop solution (200 mM Tris pH 8.0, 200 mM EDTA, 2M NaCl, 160 μM anacardic acid). 35 μL of the reaction volume was transferred to a 384-well streptavidin FlashPlate (PerkinElmer) using a Bravo liquid handler (Velocity 11) and incubated for 1.5 hr at RT. Plates were aspirated, washed with 95 μL wash buffer (15 mM Tris pH 8.5, 0.069 μM Brij-35), aspirated, sealed, and scintillation counts read on a Topcount (PerkinElmer). Data were analyzed in Genedata to determine inhibitor IC50 values.
The full length p300 SPA assay was run following the same protocol as p300 HAT SPA assay, but used 6 nM purified full length p300 (purchased from Active Motif) in place of the purified p300-HAT domain.

In test [3] the test system is acetylation of chromatin at H3K18 (catalyzed by p300 and CBP) in HCT-116 cells. The experiment in a line: H3K18Ac MSD cellular assay. It is filed as cell-based. The settings on record: Homo sapiens, HCT-116, 2 h, 2 hr treatment, average of at least 2 replicate titrations. In outline:
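HCT-116 cells plated overnight in RPMI + 10% FBS, treated with compound for 2 h at 37 °C, then lysed. H3K18ac measured by MSD sandwich immunoassay: total-histone capture antibody, anti-H3K18ac detection, Sulfo-Tag anti-rabbit electrochemiluminescence read.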

Chain of full length p300 (Q09472 whole entry): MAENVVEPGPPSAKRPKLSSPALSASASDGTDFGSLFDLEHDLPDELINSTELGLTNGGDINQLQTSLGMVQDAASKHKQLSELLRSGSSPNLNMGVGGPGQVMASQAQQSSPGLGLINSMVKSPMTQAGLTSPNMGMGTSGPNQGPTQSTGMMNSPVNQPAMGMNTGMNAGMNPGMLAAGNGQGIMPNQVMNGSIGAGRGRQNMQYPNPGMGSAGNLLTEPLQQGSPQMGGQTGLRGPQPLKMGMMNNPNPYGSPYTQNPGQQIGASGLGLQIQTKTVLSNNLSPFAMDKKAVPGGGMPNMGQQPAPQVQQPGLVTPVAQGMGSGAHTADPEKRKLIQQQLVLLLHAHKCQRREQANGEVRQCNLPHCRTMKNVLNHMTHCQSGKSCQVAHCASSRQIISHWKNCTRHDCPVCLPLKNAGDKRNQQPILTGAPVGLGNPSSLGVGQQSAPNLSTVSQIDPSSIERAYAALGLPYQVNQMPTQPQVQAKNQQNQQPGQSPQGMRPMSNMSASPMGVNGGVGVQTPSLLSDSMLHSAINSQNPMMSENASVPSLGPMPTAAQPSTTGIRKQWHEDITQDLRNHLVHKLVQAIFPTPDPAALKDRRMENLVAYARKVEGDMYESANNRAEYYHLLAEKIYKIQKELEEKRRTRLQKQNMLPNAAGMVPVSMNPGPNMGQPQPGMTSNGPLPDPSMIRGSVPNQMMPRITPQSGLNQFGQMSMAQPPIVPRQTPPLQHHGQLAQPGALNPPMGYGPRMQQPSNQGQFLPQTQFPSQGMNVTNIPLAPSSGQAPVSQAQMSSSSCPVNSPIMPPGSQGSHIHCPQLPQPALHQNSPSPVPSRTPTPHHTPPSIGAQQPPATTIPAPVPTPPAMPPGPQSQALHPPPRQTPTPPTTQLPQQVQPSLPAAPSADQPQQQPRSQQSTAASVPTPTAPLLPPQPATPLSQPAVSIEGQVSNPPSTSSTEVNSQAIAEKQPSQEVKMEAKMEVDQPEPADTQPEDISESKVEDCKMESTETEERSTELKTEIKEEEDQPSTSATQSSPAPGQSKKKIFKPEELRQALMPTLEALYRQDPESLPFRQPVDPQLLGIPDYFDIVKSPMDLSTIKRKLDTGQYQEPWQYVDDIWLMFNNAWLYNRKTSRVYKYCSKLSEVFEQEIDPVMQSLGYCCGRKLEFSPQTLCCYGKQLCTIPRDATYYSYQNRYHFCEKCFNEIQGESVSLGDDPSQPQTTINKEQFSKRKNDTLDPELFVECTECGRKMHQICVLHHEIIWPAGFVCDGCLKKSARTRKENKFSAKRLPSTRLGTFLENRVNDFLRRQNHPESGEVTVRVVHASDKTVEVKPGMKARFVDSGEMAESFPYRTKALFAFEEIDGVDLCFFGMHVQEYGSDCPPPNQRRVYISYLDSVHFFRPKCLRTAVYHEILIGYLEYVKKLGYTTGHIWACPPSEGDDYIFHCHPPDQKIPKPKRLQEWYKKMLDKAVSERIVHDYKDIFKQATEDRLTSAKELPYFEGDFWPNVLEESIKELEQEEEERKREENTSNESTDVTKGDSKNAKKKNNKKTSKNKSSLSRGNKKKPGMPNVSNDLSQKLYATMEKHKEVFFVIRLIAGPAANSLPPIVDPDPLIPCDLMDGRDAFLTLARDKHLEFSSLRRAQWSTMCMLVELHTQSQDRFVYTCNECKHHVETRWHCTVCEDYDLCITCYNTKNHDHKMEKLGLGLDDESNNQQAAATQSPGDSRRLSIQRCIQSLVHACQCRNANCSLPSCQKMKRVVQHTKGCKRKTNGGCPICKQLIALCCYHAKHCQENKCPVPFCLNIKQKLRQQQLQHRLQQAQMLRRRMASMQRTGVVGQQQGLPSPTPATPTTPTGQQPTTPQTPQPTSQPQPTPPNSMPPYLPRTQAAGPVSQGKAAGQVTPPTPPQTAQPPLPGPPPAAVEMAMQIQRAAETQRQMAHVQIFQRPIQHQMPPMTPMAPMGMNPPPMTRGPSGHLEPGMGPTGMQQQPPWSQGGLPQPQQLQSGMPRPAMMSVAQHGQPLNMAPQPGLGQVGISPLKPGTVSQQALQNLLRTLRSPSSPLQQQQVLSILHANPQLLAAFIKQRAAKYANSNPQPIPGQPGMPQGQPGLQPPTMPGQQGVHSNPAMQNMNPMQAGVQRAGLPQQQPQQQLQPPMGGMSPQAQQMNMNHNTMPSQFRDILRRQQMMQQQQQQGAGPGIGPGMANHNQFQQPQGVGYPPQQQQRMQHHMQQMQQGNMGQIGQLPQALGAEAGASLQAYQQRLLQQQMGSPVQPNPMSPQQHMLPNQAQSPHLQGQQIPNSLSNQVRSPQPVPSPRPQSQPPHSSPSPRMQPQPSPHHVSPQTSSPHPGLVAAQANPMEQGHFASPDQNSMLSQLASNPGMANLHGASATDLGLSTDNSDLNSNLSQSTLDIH
Chain of p300 HAT domain (residues 1287-1666) (Q09472 1287-1666): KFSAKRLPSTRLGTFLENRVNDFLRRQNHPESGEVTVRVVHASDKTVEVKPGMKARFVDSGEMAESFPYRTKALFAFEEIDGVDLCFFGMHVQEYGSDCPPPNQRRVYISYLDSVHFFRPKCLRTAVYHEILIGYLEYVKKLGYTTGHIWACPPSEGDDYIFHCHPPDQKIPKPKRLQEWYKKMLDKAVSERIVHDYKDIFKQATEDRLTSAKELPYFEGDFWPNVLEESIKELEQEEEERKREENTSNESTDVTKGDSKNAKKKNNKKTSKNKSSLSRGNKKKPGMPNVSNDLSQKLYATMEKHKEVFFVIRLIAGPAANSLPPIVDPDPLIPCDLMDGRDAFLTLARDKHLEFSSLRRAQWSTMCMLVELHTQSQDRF

`O=C(c1c[nH]c2ccccc12)C(NCCc1ccc(Cl)cc1)c1cccnc1` (racemic) [43 Racemic, (rac)-2-((4-chlorophenethyl)amino)-1-(1H-indol-3-yl)-2-(pyridin-3-yl)ethan-1-one]: the IC50 in test [1] was 4210 nM; in test [2], 145 nM. In test [3], this molecule had an EC50 of 3900 nM.

`NS(=O)(=O)c1ccc(CCNC(C(=O)c2c[nH]c3ccc(Cl)cc23)c2ccccc2)cc1` (single isomer, unassigned) [14 Isomer 1]: the IC50 in test [1] was above 60000 nM; in test [2], 9540 nM.

For `NS(=O)(=O)c1ccc(CCNC(C(=O)c2c[nH]c3ccc(Cl)cc23)c2ccccc2)cc1` (single isomer, unassigned) [14 Isomer 2], the figures for the IC50 in test [1] and in test [2] were 47400 nM and 1860 nM, respectively.

For `NS(=O)(=O)c1ccc(CCNC(C(=O)c2c[nH]c3c(Cl)cccc23)c2ccccc2)cc1` (single isomer, unassigned) [15 Isomer 2], the half-inhibitory concentration (IC50) in test [1] came to 1490 nM; in test [2], 81.2 nM. Besides, the EC50 in test [3] was determined as 405 nM.

Consider `Cc1[nH]c2ccccc2c1C(=O)C(NCCc1ccc(S(N)(=O)=O)cc1)c1ccccc1` (single isomer, unassigned) [16 Isomer 2], for which the IC50 in test [1] stood at 6980 nM; in test [2], 378 nM.

As for `O=C(c1c[nH]c2ccccc12)C(NCCc1ccc(C(F)(F)F)cc1)c1ccccc1` (single isomer, unassigned) [21 Isomer 1], the IC50 in test [1] amounted to 715 nM; in test [2], 100 nM. The molecule also yielded an EC50 in test [3] of 91.3 nM.

Turning to `O=C(c1c[nH]c2ccccc12)C(NCCc1ccc(F)cc1)c1ccccc1` (single isomer, unassigned) [22 Isomer 2], the IC50 in test [1] came to 2320 nM; in test [2] it was 20.8 nM. The same molecule returned an EC50 in test [3] of 1690 nM.

With `COc1ccc(CCNC(C(=O)c2c[nH]c3c(CCC(=O)N(C)C)cccc23)c2ccccc2)cc1` (single isomer, unassigned) [29 Isomer 1], the IC50 is 2190 nM in test [1] and 91.1 nM in test [2].

`COc1ccc(CCNC(C(=O)c2c[nH]c3c(CCC(=O)N(C)C)cccc23)c2ccccc2)cc1` (single isomer, unassigned) [29 Isomer 2]: the IC50 in test [1] came out at 6600 nM; in test [2] it was 220 nM.

As to `NS(=O)(=O)c1ccc(CCNC(C(=O)c2c[nH]c3cnccc23)c2ccccc2)cc1` (single isomer, unassigned) [32 Isomer 1], the figures for the IC50 in test [1] and in test [2] were 1450 nM and 102 nM, respectively. Moreover, the half-maximal effective concentration (EC50) in test [3] worked out at 3670 nM.

For the molecule `NS(=O)(=O)c1ccc(CCNC(C(=O)c2c[nH]c3cnccc23)c2ccccc2)cc1` (single isomer, unassigned) [32 Isomer 2], the IC50 worked out at 12900 nM in test [1] and 744 nM in test [2].

For `NS(=O)(=O)c1ccc(CCNC(C(=O)c2c[nH]c3ncccc23)c2ccccc2)cc1` (single isomer, unassigned) [33 Isomer 1], the IC50 in test [1] is above 60000 nM; in test [2], 1750 nM.

For the molecule `NS(=O)(=O)c1ccc(CCNC(C(=O)c2c[nH]c3ncccc23)c2ccccc2)cc1` (single isomer, unassigned) [33 Isomer 2], the IC50 was 10000 nM in test [1] and 554 nM in test [2].

Consider `CN(C)c1ccc(CCNC(C(=O)c2c[nH]c3ccccc23)c2ccccc2)cc1` (single isomer, unassigned) [39 Isomer 2], for which the IC50 in test [1] was 770 nM; in test [2], 27.5 nM. In test [3], a half-maximal response (EC50) required 529 nM.

On to `Cc1nc(C(=O)C(NCCc2ccc(Cl)cc2)c2ccccc2)c2ccccn12` (single isomer, unassigned) [45 Isomer 2], for which the IC50 in test [1] amounted to 39800 nM; in test [2], 1350 nM.

Turning to `O=C(c1cnc2ccccn12)C(NCCc1ccc(Cl)cc1)c1ccccc1` (single isomer, unassigned) [46 Isomer 1], the IC50 was 9000 nM in test [1] and 13100 nM in test [2].

Consider `O=C(c1n[nH]c2ccccc12)C(NCCc1ccc(Cl)cc1)c1ccccc1` (single isomer, unassigned) [47 Isomer 1], for which the IC50 came to 4800 nM in test [1] and 1310 nM in test [2].

For `O=C(c1n[nH]c2ccccc12)C(NCCc1ccc(Cl)cc1)c1ccccc1` (single isomer, unassigned) [47 Isomer 2], the IC50 in test [1] was 20300 nM; in test [2], 1300 nM.

Regarding `CNC(=O)Cc1ccc2c(C(=O)C(NCCc3ccc(C#N)cc3)c3ccccc3)c[nH]c2c1` (single isomer, unassigned) [62 Isomer 1], the IC50 in test [1] worked out at 501 nM; in test [2], 37.2 nM.

With `CNC(=O)Cc1ccc2c(C(=O)C(NCCc3ccc(C#N)cc3)c3ccccc3)c[nH]c2c1` (single isomer, unassigned) [62 Isomer 2], the IC50 worked out at 3340 nM in test [1] and 51.3 nM in test [2].

On to `CN(C)C(=O)Cc1ccc2c(C(=O)C(NCCc3ccc(C#N)cc3)c3ccccc3)c[nH]c2c1` (single isomer, unassigned) [63 Isomer 2], for which the IC50 in test [1] is 2500 nM; in test [2], 46.2 nM.

On to `O=C(c1c[nH]c2cc(-c3ccccn3)ccc12)C(NCCc1ccc(F)cc1)c1ccccc1` (single isomer, unassigned) [105 Isomer 2], for which the IC50 turned out to be 1380 nM in test [1] and 25.1 nM in test [2].

Turning to `CN(C)C(=O)c1ccc(CCNC(C(=O)c2c[nH]c3ccccc23)c2ccccc2)cc1` (single isomer, unassigned) [135 Isomer 2], the IC50 was 28800 nM in test [1] and 819 nM in test [2].

Take `Cn1cc(-c2ccc3c(C(=O)C(NCCc4ccc(C(=O)O)cc4)c4ccccc4)c[nH]c3c2)cn1` (single isomer, unassigned) [138 Isomer 1]: the IC50 in test [1] is 442 nM; in test [2] it was 30 nM.

Turning to `COc1ccc(CCN[C@H](C(=O)c2c[nH]c3c(C(C)C)cccc23)c2ccccc2)cc1` (single isomer, unassigned) [145 Isomer 1], the IC50 in test [1] came to 18500 nM; in test [2], 593 nM.

With `CNC(=O)c1cccc2c(C(=O)C(NCCc3ccc(Cl)cc3Cl)c3ccccc3)c[nH]c12` (single isomer, unassigned) [147 Isomer 2], the figures for the IC50 in test [1] and in test [2] were 4910 nM and 336 nM, respectively.

Regarding `CN(C)C(=O)c1cccc2c(C(=O)C(NCCc3ccc(Cl)cc3Cl)c3ccccc3)c[nH]c12` (single isomer, unassigned) [148 Isomer 2], the figures for the concentration for half-maximal inhibition (IC50) in test [1] and in test [2] were 8050 nM and 355 nM, respectively.

Take `CN(C)CCNC(=O)c1cccc2c(C(=O)C(NCCc3ccc(Cl)cc3Cl)c3ccccc3)c[nH]c12` (single isomer, unassigned) [149 Isomer 1]: the IC50 in test [1] was determined as 5920 nM; in test [2], 223 nM.

As for `COCCNC(=O)c1cccc2c(C(=O)C(NCCc3ccc(Cl)cc3Cl)c3ccccc3)c[nH]c12` (single isomer, unassigned) [150 Isomer 1], the IC50 came out at 7970 nM in test [1] and 393 nM in test [2].

Consider `CN(C)CCNC(=O)c1ccc2c(C(=O)C(NCCc3ccc(Cl)cc3Cl)c3ccccc3)c[nH]c2c1` (single isomer, unassigned) [153 Isomer 1], for which the IC50 came to 345 nM in test [1] and 7.84 nM in test [2].

Consider `CN(C)CCNC(=O)c1ccc2c(C(=O)C(NCCc3ccc(Cl)cc3Cl)c3ccccc3)c[nH]c2c1` (single isomer, unassigned) [153 Isomer 2], for which the IC50 in test [1] turned out to be 79.8 nM; in test [2] it was 5.72 nM.

As for `COCCNC(=O)c1ccc2c(C(=O)C(NCCc3ccc(Cl)cc3Cl)c3ccccc3)c[nH]c2c1` (single isomer, unassigned) [154 Isomer 1], the IC50 in test [1] worked out at 325 nM; in test [2], 37.7 nM.

`COCCNC(=O)c1ccc2c(C(=O)C(NCCc3ccc(Cl)cc3Cl)c3ccccc3)c[nH]c2c1` (single isomer, unassigned) [154 Isomer 2]: the IC50 in test [1] stood at 1620 nM; in test [2], 8.95 nM.

Regarding `N#Cc1ccc(CCNC(C(=O)c2c[nH]c3cc(C(=O)O)ccc23)c2ccccc2)cc1` (single isomer, unassigned) [155 Isomer 2], the IC50 in test [1] was determined as 4090 nM; in test [2], 285 nM.

Regarding `CNC(=O)c1ccc2c(C(=O)C(NCCc3ccc(C#N)cc3)c3ccccc3)c[nH]c2c1` (single isomer, unassigned) [156 Isomer 1], the IC50 is 584 nM in test [1] and 29.1 nM in test [2].

As for `O=C(O)CCc1ccc2c(C(=O)C(NCCc3ccc(F)cc3)c3ccccc3)c[nH]c2c1` (single isomer, unassigned) [159 Isomer 2], the IC50 in test [1] was 5900 nM; in test [2], 274 nM.

As for `N#Cc1ccc(CCNC(C(=O)c2c[nH]c3cc(C(=O)NCCN4CCCC4=O)ccc23)c2ccccc2)cc1` (single isomer, unassigned) [164 Isomer 1], the figures for the IC50 in test [1] and in test [2] were 3660 nM and 190 nM, respectively.

Consider `N#Cc1ccc(CCNC(C(=O)c2c[nH]c3cc(C(=O)NCCN4CCCC4=O)ccc23)c2ccccc2)cc1` (single isomer, unassigned) [164 Isomer 2], for which the IC50 in test [1] is 140 nM; in test [2] it was 6.03 nM.
